Source: patent US20090270413A1, “DI-T-BUTYLPHENYL PIPERAZINES AS CALCIUM CHANNEL BLOCKERS” (priority 2008, published 2009)

Biological target: T1, Human Cav2.2 channels (Homo sapiens, UniProt Q00975)
T1 construct: expressed in transfected cells
Experiment: Block of Cav2.2 (N-type) channels expressed in HEK293 cells
Format: cell-based
Conditions: HEK293; for inhibition at 10 µM: read-out: Cav 2.2 % Inh @ 10 μM; for inhibition at 30 µM: read-out: Cav 2.2 % Inh @ 30 μM
Excerpt: Human Cav2.2 channels were stably expressed in HEK293 cells along with alpha2-delta and beta subunits of voltage-gated calcium channels. An inwardly rectifying potassium channel (Kir2.3) was also expressed in these cells to allow more precise control of the cell membrane potential by extracellular potassium concentration. At low bath potassium concentration, the membrane potential is relatively negative, and is depolarized as the bath potassium concentration is raised. In this way, the bath potassium concentration can be used to regulate the voltage-dependent conformations of the channels. Compounds are incubated with cells in the presence of low (4 mM) potassium or elevated (12, 25 or 30 mM) potassium to determine the affinity for compound block of resting (closed) channels at 4 mM potassium or affinity for block of open and inactivated channels at 12, 25 or 30 mM potassium. After the incubation period, Cav2.2 channel opening is triggered by addition of higher concentration of potassium (70 mM final concentration) to further depolarize the cell. The degree of state-dependent block can be estimated from the inhibitory potency of compounds after incubation in different potassium concentrations.
Calcium influx through Cav2.2 channels is determined using a calcium sensitive fluorescent dye in combination with a fluorescent plate reader. Fluorescent changes were measured with either a VIPR (Aurora Instruments) or FLIPR (Molecular Devices) plate reader.
Protocol • 1. Seed cells in Poly-D-Lysine Coated 96 or 384-well plate and keep in a 37° C.-10% CO2 incubator overnight • 2. Remove media, wash cells with 0.2 mL (96-well plate) or 0.05 mL (384-well plate) Dulbecco's Phosphate Buffered Saline (D-PBS) with calcium & magnesium (Invitrogen; 14040) • 3. Add 0.1 mL (96-well plate) or 0.05 mL (384-well plate) of 4 μM fluor-4 (Molecular Probes; F-14202) and 0.02% Pluronic acid (Molecular Probes; P-3000) prepared in D-PBS with calcium & magnesium (Invitrogen; 14040) supplemented with 10 mM Glucose & 10 mM Hepes/NaOH; pH 7.4 • 4. Incubate in the dark at 25° C. for 60-70 min • 5. Remove dye, wash cells with 0.1 mL (96-well plate) or 0.06 mL (384-well plate) of 4, 12, 25, or 30 mM Potassium Pre-polarization Buffer (PPB) • 6. Add 0.1 mL (96-well plate) or 0.03 mL (384-well plate) of 4, 12, 25, 30 mM PPB with or without test compound • 7. Incubate in the dark at 25° C. for 30 min • 8. Read cell plate on VIPR instrument, Excitation=480 nm, Emission=535 nm • 9. With VIPR continuously reading, add 0.1 mL (96-well plate) or 0.03 mL (384-well plate) of Depolarization Buffer (DB), which is 2× the final assay concentration, to the cell plate.
Block of N-type calcium channels is evaluated utilizing the IonWorks HT 384 well automated patch clamp electrophysiology device. This instrument allows synchronous recording from 384 well (48 at a time). A single whole cell recording is made in each well. Whole cell recording is established by perfusion of the internal compartment with amphotericin B.
The voltage protocol is designed to detect use-dependent block. A 2 Hz train of depolarizations (twenty 25 ms steps to +20 mV). The experimental sequence consists of a control train (pre-compound), incubation of cells with compound for 5 minutes, followed by a second train (post-compound). Use dependent block by compounds is estimated by comparing fractional block of the first pulse in the train to block of the 20th pulse.
Parallel patch clamp electrophysiology is performed using IonWorks HT (Molecular Devices Corp) essentially as described by Kiss and colleagues (Kiss et al. 2003; Assay and Drug Development Technologies, 1:127-135). Briefly, a stable HEK 293 cell line (referred to as CBK) expressing the N-type calcium channel subunits (α1B, α2δ, β3a) and an inwardly rectifying potassium channel (Kir2.3) is used to record barium current through the N-type calcium channel. Cells are grown in T75 culture plates to 60-90% confluence before use. […]

T1 sequence (Q00975 whole entry): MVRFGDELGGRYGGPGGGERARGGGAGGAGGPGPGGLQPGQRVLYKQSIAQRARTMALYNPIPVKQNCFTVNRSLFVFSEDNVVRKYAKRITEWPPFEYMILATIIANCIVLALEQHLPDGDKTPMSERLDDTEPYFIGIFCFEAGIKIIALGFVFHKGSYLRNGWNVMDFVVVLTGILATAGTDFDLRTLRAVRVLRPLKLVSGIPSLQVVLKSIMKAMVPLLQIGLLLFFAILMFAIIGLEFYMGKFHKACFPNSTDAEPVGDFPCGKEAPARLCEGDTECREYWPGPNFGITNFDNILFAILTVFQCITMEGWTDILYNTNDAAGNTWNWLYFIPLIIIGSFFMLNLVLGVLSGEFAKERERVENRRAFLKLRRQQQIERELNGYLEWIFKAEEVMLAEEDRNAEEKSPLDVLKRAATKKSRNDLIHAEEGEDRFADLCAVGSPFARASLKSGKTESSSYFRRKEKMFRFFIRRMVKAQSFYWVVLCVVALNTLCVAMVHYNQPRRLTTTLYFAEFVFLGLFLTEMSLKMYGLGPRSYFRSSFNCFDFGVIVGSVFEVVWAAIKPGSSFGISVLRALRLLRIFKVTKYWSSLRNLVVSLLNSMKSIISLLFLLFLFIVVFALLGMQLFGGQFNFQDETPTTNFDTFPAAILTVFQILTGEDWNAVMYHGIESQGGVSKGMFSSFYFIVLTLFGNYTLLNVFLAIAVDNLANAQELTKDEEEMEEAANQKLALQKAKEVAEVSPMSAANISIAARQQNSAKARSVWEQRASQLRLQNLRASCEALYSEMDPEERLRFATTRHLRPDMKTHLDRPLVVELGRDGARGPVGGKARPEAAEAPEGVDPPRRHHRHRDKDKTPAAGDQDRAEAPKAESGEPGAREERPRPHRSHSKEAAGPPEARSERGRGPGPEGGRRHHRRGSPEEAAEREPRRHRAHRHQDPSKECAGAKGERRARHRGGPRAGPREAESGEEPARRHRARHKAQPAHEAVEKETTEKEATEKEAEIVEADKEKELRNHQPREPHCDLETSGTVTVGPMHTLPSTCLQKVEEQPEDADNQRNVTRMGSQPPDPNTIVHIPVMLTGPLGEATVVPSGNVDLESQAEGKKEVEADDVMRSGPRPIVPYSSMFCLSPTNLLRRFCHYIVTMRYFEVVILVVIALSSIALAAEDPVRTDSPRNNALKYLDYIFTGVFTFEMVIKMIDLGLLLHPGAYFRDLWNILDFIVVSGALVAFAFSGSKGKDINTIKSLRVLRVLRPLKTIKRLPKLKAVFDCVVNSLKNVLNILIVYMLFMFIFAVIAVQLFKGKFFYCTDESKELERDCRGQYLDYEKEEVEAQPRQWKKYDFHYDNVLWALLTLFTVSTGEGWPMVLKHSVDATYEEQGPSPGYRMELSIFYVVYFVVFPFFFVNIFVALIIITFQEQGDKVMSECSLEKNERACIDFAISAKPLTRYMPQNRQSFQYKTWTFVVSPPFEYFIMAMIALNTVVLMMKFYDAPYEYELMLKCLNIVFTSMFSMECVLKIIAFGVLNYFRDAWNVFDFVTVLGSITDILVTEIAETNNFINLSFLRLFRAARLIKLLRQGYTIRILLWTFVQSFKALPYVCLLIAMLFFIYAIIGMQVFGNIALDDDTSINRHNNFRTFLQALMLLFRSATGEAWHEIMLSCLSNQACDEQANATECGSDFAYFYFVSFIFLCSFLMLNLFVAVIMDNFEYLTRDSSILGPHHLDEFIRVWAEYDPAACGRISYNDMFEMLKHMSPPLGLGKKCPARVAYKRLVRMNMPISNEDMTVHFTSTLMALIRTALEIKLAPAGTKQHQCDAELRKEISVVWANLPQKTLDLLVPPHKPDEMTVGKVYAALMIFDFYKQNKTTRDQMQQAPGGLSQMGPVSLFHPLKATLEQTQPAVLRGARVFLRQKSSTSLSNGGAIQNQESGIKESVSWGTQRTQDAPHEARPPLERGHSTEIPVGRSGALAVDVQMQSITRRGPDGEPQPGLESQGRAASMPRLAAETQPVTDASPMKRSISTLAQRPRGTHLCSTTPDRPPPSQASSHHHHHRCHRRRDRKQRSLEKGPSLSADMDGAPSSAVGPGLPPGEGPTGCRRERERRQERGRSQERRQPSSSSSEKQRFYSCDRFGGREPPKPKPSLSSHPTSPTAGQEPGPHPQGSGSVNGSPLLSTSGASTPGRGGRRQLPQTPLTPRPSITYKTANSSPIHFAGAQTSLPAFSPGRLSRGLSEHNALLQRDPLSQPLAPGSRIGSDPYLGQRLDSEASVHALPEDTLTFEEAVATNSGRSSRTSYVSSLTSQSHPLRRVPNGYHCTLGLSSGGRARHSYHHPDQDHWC
T1 sequence (P54289 25-956 partner limits assumed): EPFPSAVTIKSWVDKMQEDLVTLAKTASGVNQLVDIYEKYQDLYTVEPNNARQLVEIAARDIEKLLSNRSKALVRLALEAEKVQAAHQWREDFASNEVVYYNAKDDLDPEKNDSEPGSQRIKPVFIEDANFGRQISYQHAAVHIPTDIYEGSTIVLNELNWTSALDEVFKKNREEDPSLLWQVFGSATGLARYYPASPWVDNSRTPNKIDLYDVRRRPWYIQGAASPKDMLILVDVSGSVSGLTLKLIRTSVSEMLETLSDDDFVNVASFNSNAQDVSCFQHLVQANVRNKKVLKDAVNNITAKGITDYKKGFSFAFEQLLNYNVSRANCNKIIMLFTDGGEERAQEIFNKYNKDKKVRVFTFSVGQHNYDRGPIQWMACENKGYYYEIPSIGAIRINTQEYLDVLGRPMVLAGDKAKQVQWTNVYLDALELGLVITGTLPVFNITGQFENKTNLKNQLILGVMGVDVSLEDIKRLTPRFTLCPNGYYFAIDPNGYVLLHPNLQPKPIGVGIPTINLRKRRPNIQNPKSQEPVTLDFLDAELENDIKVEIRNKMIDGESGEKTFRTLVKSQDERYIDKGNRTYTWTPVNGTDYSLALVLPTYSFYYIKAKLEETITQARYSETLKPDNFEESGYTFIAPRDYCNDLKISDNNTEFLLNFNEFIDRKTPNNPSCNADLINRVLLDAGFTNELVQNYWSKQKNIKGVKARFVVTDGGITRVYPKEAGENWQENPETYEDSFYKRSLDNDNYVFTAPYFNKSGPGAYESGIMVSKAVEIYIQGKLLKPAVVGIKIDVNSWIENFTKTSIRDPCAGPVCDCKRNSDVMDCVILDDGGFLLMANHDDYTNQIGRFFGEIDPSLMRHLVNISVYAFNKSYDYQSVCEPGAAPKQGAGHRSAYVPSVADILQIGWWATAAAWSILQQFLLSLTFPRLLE
T1 sequence (P54289 957-1103 partner limits assumed): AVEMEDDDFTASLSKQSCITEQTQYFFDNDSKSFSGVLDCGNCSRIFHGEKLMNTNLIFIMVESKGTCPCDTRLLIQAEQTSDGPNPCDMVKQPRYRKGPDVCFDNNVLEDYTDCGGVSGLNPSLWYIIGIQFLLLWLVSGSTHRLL
T1 sequence (P54284 whole entry partner): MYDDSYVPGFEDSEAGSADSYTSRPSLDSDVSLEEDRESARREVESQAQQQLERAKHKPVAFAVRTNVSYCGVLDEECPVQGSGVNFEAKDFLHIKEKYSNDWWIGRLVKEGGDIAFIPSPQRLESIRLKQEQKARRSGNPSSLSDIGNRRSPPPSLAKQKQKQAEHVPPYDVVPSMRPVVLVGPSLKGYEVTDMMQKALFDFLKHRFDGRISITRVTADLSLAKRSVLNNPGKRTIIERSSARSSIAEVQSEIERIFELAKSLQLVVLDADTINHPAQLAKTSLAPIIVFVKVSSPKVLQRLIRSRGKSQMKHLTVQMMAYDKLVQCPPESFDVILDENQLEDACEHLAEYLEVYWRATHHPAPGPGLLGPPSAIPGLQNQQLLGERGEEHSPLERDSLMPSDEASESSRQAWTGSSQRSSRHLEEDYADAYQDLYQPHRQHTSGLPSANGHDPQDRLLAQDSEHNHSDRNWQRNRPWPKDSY

Row | SMILES | inhibition at 10 µM | inhibition at 30 µM
1 | CC(C)(C)c1cc(N2CCN(C(=O)c3cc4cccnc4nc3C(F)(F)F)CC2)cc(C(C)(C)C)c1 [Compound 19] | 49% | 69%
2 | CC(C)(C)c1cc(N2CCN(C(=O)c3ccc(C(O)(C(F)(F)F)C(F)(F)F)cc3)CC2)cc(C(C)(C)C)c1 [Compound 36, (4-(3,5-di-tert-butylphenyl)piperazin-1-yl)(4-(1,1,1,3,3,3-hexafluoro-2-hydroxypropan-2-yl)phenyl)methanone] | 32% | 73%
3 | CC(C)(C)c1cc(N2CCN(C(=O)c3cc(F)cc(C(F)(F)F)c3)CC2)cc(C(C)(C)C)c1 [Compound 12, (4-(3,5-di-tert-butylphenyl)piperazin-1-yl)(3-fluoro-5-(trifluoromethyl)phenyl)methanone] | 84% | 98%
4 | Cc1cc(C(=O)N2CCN(c3cc(C(C)(C)C)cc(C(C)(C)C)c3)CC2)c(C(F)(F)F)o1 [Compound 1, (4-(3,5-di-tert-butylphenyl)piperazin-1-yl)(5-methyl-2-(trifluoromethyl)furan-3-yl)methanone] | 91% | 101%
5 | CCCc1cc(C(=O)N2CCN(c3cc(C(C)(C)C)cc(C(C)(C)C)c3)CC2)sc1C [Compound 44, (4-(3,5-di-tert-butylphenyl)piperazin-1-yl)(5-methyl-4-propylthiophen-2-yl)methanone] | 65% | 81%
6 | CC(C)c1cc(C(=O)N2CCN(c3cc(C(C)(C)C)cc(C(C)(C)C)c3)CC2)c2cnn(C(C)C)c2n1 [Compound 27, (4-(3,5-di-tert-butylphenyl)piperazin-1-yl)(1,6-diisopropyl-1H-pyrazolo[3,4-b]pyridin-4-yl)methanone] | 59% | 83%
7 | CC(C)(C)c1cc(N2CCN(C(=O)c3cc4cc(C(F)(F)F)ccc4s3)CC2)cc(C(C)(C)C)c1 [Compound 39, (4-(3,5-di-tert-butylphenyl)piperazin-1-yl)(5-(trifluoromethyl)benzo[b]thiophen-2-yl)methanone] | 15% | 41%
8 | CCOc1ccc(C(=O)N2CCN(c3cc(C(C)(C)C)cc(C(C)(C)C)c3)CC2)o1 [Compound 51, (4-(3,5-di-tert-butylphenyl)piperazin-1-yl)(5-ethoxyfuran-2-yl)methanone] | 98% | 100%
9 | Cc1ccc(S(C)(=O)=O)cc1C(=O)N1CCN(c2cc(C(C)(C)C)cc(C(C)(C)C)c2)CC1 [Compound 26, (4-(3,5-di-tert-butylphenyl)piperazin-1-yl)(2-methyl-5-(methylsulfonyl)phenyl)methanone] | 87% | 98%
10 | CC(C)(C)c1cc(N2CCN(C(=O)c3cc(C4CC4)n[nH]3)CC2)cc(C(C)(C)C)c1 [Compound 42, (3-cyclopropyl-1H-pyrazol-5-yl)(4-(3,5-di-tert-butylphenyl)piperazin-1-yl)methanone] | 54% | 98%
11 | CCc1cc(C(=O)N2CCN(c3cc(C(C)(C)C)cc(C(C)(C)C)c3)CC2)sc1C [Compound 52, (4-(3,5-di-tert-butylphenyl)piperazin-1-yl)(4-ethyl-5-methylthiophen-2-yl)methanone] | 75% | 88%
12 | CC(C)(C)c1cc(N2CCN(C(=O)c3cc(C4CC4)nc4ccccc34)CC2)cc(C(C)(C)C)c1 [Compound 40, (2-cyclopropylquinolin-4-yl)(4-(3,5-di-tert-butylphenyl)piperazin-1-yl)methanone] | 86% | 91%
13 | CC(C)(C)c1cc(N2CCN(C(=O)c3ccncc3)CC2)cc(C(C)(C)C)c1 [Compound 2, (4-(3,5-di-tert-butylphenyl)piperazin-1-yl)(pyridin-4-yl)methanone] | 90% | 94%
